Measured values from article PMC4240342 (Bioconjugate Chemistry, 2014).

Test system: human osteosarcoma Saos-2 cells
Experiment: Cytotoxicity, CCK-8 bioassay
Type: cell-based
Details: read-out: IC50, cytotoxicity, 72 h incubation, CCK-8, concentrations as hydrazone-bound DOX content, mean ± SEM of three experiments

## COc1cccc2c1C(=O)c1c(O)c3c(c(O)c1C2=O)C[C@@](O)(C(=O)CO)C[C@@H]3O[C@H]1C[C@H](N)[C@H](O)[C@H](C)O1 [Free DOX, Doxorubicin]
  IC50: 77 ± 9 nM
